Source: ChEMBL document CHEMBL1135773, “Purine and pyrimidine (P2) receptors as drug targets” (J Med Chem, 2002)

Tests used:
P2X purinoceptor 2 [1] = target: T1, P2X purinoceptor 2 (Rattus norvegicus, UniProt P49653); test: Antagonist activity against recombinant rat receptor P2X purinoceptor 2 (P2X2) at 10 uM, expressed in Xenopus oocytes; assay type: functional, cell-based, Oocyte
T1 sequence (P49653 whole entry): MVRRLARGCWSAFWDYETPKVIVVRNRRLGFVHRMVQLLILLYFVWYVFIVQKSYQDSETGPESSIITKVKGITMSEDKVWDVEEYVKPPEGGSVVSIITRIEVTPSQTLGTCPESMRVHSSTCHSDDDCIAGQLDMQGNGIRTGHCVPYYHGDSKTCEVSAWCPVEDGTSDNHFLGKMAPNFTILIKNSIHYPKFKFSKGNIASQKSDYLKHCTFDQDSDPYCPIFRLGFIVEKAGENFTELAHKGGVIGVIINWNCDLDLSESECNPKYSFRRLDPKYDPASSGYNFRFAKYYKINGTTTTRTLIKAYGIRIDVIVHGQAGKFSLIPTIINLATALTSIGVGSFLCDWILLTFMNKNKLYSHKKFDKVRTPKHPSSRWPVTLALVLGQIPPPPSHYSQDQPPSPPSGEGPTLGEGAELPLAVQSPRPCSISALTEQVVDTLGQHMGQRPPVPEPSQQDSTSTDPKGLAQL

P2Y purinoceptor 1 [2] = target: T2, P2Y purinoceptor 1 (Meleagris gallopavo, UniProt P49652); test: Evaluated for antagonist activity agonist phospholipase C coupled P2Y purinoceptor 1 (P2Y1) of turkey erythrocytes; assay type: functional
P2X purinoceptor 4 [3] = target: T3, P2X purinoceptor 4 (Homo sapiens, UniProt Q99571); test: Antagonist activity against recombinant human P2X purinoceptor 4 (P2X4); assay type: functional
T3 sequence (Q99571 whole entry): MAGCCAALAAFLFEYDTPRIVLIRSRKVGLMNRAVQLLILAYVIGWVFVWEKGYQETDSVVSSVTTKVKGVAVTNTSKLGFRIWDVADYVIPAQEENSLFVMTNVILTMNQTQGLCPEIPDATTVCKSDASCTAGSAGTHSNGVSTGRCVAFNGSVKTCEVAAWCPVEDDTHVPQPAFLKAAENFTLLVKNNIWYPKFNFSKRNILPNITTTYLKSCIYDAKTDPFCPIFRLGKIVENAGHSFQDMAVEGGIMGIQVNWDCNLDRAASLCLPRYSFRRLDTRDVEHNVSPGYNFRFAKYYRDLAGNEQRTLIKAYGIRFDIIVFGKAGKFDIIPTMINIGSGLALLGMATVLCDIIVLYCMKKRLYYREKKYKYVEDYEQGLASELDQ

P2Y purinoceptor 12 = P2Y purinoceptor 12 (Rattus norvegicus, UniProt Q9EPX4); test: Antagonist activity against phospholipase C coupled rat P2Y purinoceptor 12 (P2Y12); assay type: functional
P2Y purinoceptor 11 = target: T4, P2Y purinoceptor 11 (Homo sapiens, UniProt Q96G91); test: Agonist activity against phospholipase C coupled human P2Y purinoceptor 11 (P2Y11); assay type: functional
T4 sequence (Q96G91 whole entry): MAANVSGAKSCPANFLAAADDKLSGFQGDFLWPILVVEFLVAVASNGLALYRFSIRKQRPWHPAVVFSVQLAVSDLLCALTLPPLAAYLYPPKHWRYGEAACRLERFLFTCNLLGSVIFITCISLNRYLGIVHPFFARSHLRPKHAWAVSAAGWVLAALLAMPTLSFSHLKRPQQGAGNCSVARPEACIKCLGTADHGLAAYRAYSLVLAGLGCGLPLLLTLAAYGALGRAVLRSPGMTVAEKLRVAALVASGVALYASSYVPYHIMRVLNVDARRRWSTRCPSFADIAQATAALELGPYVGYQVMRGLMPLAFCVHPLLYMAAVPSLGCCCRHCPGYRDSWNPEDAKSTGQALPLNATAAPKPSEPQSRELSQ

P2Y purinoceptor 2 = P2Y purinoceptor 2 (Homo sapiens, UniProt P41231); test: Evaluated for agonist activity against phospholipase C coupled recombinant human P2Y purinoceptor 2 (P2Y2); assay type: functional
P2X purinoceptor 6 = P2X purinoceptor 6 (Rattus norvegicus, UniProt P51579); test: Antagonist activity against recombinant rat P2X purinoceptor 6 (P2X6 ); assay type: functional
P2Y purinoceptor 4 [4] = target: P2Y purinoceptor 4 (Rattus norvegicus, UniProt O35811); test: The compound was evaluated for agonist activity against phospholipase C coupled recombinant rat P2Y purinoceptor 4 (P2Y4); assay type: functional
P2Y purinoceptor 6 = P2Y purinoceptor 6 (Homo sapiens, UniProt Q15077); test: The compound was evaluated for agonist activity against phospholipase C coupled recombinant human P2Y purinoceptor 6 (P2Y6); assay type: functional
P2X purinoceptor 5 = target: T5, P2X purinoceptor 5 (Rattus norvegicus, UniProt P51578); test: Antagonist activity against recombinant rat P2X purinoceptor 5 (P2X5); assay type: functional
T5 sequence (P51578 whole entry): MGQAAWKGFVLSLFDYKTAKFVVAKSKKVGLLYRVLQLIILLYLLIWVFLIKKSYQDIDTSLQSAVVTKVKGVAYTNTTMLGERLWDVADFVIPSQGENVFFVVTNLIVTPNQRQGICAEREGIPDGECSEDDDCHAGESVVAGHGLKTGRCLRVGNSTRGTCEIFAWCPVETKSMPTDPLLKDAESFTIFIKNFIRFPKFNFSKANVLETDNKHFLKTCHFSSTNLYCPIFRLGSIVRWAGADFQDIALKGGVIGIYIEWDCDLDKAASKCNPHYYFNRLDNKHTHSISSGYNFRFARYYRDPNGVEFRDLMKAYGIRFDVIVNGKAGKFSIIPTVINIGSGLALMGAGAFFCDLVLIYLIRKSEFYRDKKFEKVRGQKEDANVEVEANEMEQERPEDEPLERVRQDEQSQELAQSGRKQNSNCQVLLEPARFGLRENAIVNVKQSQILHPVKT

P2Y purinoceptor 4 [5] = target: P2Y purinoceptor 4 (Homo sapiens, UniProt P51582); test: The compound was evaluated for antagonist activity against phospholipase C coupled recombinant human P2Y purinoceptor 4 (P2Y4); assay type: functional
P2X purinoceptor 3 = target: T6, P2X purinoceptor 3 (Homo sapiens, UniProt P56373); test: Antagonist activity against recombinant human P2X purinoceptor 3 (P2X3 ); assay type: functional
T6 sequence (P56373 whole entry): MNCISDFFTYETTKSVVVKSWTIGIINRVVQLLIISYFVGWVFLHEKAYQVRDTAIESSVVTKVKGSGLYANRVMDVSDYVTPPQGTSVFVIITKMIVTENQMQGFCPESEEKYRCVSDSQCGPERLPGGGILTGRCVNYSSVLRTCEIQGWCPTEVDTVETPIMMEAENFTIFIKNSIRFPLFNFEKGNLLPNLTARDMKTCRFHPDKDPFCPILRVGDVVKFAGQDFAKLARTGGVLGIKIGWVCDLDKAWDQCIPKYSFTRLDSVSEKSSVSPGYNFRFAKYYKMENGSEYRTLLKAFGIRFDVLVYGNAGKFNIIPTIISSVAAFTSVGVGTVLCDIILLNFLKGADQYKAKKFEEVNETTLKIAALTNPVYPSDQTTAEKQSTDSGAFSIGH

P2X purinoceptor 4 [6] = target: T7, P2X purinoceptor 4 (Rattus norvegicus, UniProt P51577); test: Antagonist activity against recombinant rat P2X purinoceptor 4 (P2X4) at 30 uM, expressed in Xenopus oocytes; assay type: functional, cell-based, Oocyte
T7 sequence (P51577 whole entry): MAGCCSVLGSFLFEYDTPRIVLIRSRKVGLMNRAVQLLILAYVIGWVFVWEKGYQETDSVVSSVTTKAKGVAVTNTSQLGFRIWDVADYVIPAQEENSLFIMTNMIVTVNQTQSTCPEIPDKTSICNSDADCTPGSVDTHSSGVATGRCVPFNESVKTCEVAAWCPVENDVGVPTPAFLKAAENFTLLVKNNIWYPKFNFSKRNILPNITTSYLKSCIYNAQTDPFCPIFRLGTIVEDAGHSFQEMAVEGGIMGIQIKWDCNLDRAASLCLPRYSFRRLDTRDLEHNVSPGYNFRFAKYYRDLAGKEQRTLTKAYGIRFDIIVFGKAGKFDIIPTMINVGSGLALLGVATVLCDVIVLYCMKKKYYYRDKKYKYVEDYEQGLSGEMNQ

P2X purinoceptor 1 [7] = target: T8, P2X purinoceptor 1 (Homo sapiens, UniProt P51575); test: Antagonist activity against recombinant human P2X purinoceptor 1 (P2X1 ); assay type: functional
T8 sequence (P51575 whole entry): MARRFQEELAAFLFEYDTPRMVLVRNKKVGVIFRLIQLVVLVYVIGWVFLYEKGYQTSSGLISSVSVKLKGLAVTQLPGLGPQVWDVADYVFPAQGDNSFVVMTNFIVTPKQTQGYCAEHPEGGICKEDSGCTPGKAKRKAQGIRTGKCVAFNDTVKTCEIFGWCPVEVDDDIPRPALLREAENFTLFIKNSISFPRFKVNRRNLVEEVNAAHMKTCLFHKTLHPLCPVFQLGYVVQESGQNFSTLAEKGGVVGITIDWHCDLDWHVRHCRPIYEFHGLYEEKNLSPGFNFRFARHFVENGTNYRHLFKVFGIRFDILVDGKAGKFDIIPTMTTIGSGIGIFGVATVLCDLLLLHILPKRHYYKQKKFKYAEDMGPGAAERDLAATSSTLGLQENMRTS

P2X purinoceptor 7 = target: T9, P2X purinoceptor 7 (Homo sapiens, UniProt Q99572); test: Antagonist activity against recombinant human P2X purinoceptor 7 (P2X7); assay type: functional
T9 sequence (Q99572 whole entry): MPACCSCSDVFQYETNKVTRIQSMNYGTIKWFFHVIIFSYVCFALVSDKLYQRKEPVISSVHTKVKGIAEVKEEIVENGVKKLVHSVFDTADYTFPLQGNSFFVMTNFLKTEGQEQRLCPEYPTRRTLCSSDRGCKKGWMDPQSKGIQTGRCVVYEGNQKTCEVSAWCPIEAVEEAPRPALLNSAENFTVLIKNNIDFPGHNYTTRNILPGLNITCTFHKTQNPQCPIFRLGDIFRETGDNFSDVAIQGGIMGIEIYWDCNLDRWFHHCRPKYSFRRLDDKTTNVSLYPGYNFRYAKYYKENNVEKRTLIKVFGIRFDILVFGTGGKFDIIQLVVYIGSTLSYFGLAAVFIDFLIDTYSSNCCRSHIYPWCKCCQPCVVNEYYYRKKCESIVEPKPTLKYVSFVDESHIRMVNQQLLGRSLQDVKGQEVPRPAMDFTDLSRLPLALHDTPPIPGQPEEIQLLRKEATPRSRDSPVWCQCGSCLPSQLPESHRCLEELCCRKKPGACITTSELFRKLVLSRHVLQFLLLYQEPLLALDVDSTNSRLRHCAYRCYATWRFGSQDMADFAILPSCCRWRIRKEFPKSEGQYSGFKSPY

P2X purinoceptor 1 [8] = target: T10, P2X purinoceptor 1 (Rattus norvegicus, UniProt P47824); test: The compound was evaluated for antagonist activity against P2X purinoceptor 1 (P2X1) from rat vas deferens; assay type: functional
T10 sequence (P47824 whole entry): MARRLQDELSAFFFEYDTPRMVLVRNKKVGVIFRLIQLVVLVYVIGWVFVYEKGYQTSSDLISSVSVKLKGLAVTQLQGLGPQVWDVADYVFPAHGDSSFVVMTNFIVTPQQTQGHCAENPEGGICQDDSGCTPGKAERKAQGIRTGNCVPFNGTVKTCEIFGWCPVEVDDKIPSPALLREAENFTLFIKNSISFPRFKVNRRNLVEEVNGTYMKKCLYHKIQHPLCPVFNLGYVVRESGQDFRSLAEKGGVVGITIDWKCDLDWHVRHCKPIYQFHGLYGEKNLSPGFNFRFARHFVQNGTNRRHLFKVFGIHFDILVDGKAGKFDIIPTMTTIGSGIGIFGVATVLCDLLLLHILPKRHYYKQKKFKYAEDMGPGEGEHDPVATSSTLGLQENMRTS

P2Y purinoceptor 1 [9] = target: P2Y purinoceptor 1 (Homo sapiens, UniProt P47900); test: Dissociation constant at P2Y purinoceptor 1 (P2Y1) from guinea pig taenia coli; design: species or system Cavia porcellus; conditions: target entry is the homologue from another species
P2Y purinoceptor 1 [10] = target: T2, P2Y purinoceptor 1; test: Evaluated for agonist activity against phospholipase C coupled P2Y purinoceptor 1 (P2Y1) of turkey erythrocytes; assay type: functional
P2X purinoceptor 2 [11] = target: T1, P2X purinoceptor 2; test: The compound was evaluated for antagonist activity against recombinant rat receptor P2X purinoceptor 2 (P2X2) at 10 uM, expressed in Xenopus oocytes; assay type: functional, cell-based, Oocyte

T2 sequence (P49652 whole entry): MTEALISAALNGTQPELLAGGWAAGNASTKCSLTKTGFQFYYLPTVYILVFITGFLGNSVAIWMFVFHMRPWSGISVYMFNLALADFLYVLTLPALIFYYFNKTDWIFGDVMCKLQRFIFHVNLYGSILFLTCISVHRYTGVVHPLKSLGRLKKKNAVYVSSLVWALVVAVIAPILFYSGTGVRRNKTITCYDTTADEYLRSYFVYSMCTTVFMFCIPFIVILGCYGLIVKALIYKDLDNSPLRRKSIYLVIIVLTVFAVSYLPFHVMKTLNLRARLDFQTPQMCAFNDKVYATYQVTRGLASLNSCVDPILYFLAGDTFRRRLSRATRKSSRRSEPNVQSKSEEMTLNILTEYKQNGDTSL
P2Y purinoceptor 2, sequence (P41231 whole entry): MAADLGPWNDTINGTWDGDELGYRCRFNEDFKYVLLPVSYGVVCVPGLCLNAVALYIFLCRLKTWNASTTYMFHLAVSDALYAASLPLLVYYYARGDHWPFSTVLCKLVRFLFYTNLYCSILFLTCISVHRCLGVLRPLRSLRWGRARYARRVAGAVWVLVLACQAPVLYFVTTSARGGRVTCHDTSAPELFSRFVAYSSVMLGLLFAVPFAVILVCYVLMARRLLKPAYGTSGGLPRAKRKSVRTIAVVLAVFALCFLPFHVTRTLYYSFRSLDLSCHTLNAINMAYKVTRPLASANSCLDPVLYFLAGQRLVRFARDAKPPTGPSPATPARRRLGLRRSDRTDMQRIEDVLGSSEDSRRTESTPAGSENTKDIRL
P2Y purinoceptor 12, sequence (Q9EPX4 whole entry): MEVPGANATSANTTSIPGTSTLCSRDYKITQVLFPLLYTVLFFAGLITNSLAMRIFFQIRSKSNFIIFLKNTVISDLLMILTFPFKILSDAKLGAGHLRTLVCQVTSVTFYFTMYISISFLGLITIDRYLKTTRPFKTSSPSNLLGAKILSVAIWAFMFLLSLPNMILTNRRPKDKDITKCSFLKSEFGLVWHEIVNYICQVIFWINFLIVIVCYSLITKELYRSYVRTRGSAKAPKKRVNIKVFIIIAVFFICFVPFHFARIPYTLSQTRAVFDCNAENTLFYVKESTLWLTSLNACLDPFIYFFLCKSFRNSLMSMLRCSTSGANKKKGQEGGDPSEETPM
P2Y purinoceptor 4 (Rattus norvegicus, UniProt O35811), sequence (O35811 whole entry): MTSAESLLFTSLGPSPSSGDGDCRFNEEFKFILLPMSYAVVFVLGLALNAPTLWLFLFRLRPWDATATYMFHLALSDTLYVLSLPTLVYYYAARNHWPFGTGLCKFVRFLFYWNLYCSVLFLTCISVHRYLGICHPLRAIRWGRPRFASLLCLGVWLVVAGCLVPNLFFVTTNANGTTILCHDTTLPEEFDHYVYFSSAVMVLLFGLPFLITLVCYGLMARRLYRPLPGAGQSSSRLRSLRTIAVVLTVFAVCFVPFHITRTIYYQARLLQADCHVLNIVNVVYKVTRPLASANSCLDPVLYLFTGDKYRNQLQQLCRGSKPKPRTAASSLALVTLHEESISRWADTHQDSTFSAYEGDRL
P2Y purinoceptor 1 (Homo sapiens, UniProt P47900), sequence (P47900 whole entry): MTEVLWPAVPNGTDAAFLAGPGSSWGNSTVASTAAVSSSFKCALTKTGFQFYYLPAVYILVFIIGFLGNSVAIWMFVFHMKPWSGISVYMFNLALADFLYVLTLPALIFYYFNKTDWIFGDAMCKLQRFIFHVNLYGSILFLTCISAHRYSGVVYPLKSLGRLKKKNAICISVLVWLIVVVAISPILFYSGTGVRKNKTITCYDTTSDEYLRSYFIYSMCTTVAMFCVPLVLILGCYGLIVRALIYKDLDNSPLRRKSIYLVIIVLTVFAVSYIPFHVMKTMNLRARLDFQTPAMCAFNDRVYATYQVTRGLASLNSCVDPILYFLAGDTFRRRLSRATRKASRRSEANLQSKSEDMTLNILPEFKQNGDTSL
P2X purinoceptor 6, sequence (P51579 whole entry): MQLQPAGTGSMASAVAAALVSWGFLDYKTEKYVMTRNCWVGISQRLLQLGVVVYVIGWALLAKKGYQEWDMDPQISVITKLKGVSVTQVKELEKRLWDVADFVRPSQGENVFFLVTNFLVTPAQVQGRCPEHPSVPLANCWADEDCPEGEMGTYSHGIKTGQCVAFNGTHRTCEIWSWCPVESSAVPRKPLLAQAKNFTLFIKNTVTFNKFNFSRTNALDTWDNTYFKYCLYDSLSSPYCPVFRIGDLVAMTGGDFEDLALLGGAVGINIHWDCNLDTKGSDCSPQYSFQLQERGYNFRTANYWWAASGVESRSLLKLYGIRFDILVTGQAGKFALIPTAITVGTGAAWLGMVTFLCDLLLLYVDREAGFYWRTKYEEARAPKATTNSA
P2Y purinoceptor 6, sequence (Q15077 whole entry): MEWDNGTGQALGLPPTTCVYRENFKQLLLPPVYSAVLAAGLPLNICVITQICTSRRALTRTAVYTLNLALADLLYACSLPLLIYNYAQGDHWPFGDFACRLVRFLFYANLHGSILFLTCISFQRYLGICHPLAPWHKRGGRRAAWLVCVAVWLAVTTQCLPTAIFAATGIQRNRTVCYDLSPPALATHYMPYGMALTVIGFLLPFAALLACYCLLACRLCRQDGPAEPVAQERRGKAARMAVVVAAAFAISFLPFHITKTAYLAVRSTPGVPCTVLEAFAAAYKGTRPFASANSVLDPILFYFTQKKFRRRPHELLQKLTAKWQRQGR
P2Y purinoceptor 4 (Homo sapiens, UniProt P51582), sequence (P51582 whole entry): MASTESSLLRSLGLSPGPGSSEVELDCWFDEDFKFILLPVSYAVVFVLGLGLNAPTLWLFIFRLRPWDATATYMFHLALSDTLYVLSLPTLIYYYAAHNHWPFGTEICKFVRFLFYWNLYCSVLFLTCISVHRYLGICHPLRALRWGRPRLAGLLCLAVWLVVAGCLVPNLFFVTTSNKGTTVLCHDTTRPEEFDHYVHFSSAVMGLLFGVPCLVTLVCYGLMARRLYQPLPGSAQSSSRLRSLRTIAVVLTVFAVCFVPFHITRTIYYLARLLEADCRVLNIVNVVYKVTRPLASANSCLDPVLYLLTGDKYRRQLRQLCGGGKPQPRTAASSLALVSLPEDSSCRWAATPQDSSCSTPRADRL

`Nc1c(S(=O)(=O)O)cc(Nc2ccc(Nc3nc(Cl)nc(Nc4cccc(S(=O)(=O)O)c4)n3)c(S(=O)(=O)O)c2)c2c1C(=O)c1ccccc1C2=O` [RB 2] gave an EC50 (P2X purinoceptor 2 [1]) of 360 nM, an EC50 (P2Y purinoceptor 1 [2]) greater than 10000 nM and an EC50 (P2X purinoceptor 4 [3]) of 128000 nM. The EC50 (P2Y purinoceptor 12) was 25 nM, the EC50 (P2Y purinoceptor 11) was greater than 100000 nM and the EC50 (P2Y purinoceptor 2) was greater than 100000 nM.

`Nc1ncnc2c1ncn2[C@@H]1O[C@H](COP(=O)(O)OP(=O)(O)OP(=O)(O)O)[C@@H](O)[C@H]1O` [ADENOSINE TRIPHOSPHATE] gave an EC50 (P2X purinoceptor 6) of 1000 nM, an EC50 (P2X purinoceptor 2 [1]) of 1400 nM and an EC50 (P2Y purinoceptor 4 [4]) of 1800 nM. For the same compound, the EC50 (P2Y purinoceptor 6) was greater than 100000 nM, the EC50 (P2X purinoceptor 5) was 1000 nM and the EC50 (P2Y purinoceptor 4 [5]) was 43000 nM. It also gave an EC50 (P2X purinoceptor 4 [3]) of 500 nM, an EC50 (P2Y purinoceptor 12) of 3190 nM and an EC50 (P2X purinoceptor 3) of 340 nM. For the same compound, the EC50 (P2X purinoceptor 4 [6]) was 1000 nM, the EC50 (P2X purinoceptor 1 [7]) was 56 nM and the EC50 (P2X purinoceptor 7) was 780000 nM. It also gave an EC50 (P2Y purinoceptor 2) of 230 nM.

Work on `C=CS(=O)(=O)c1cccc(Nc2cc(S(=O)(=O)O)c(N)c3c2C(=O)c2ccccc2C3=O)c1` [UNIBLUE A] yielded an IC50 (P2X purinoceptor 1 [8]) of 7500 nM and a Kd (P2Y purinoceptor 1 [9]) greater than 100000 nM.

In the case of `Cc1nc(/N=N/c2cc(S(=O)(=O)O)ccc2Cl)c(COP(=O)(O)O)c(C=O)c1O`, the EC50 (P2Y purinoceptor 1 [10]) is reported as 4.4 nM and the EC50 (P2X purinoceptor 2 [11]) is reported as 1.1 nM.
